The pA2 is a measure of antagonist potency on a negative log scale.

The values that follow come from patent US5126368A, “Octenoic acid derivatives useful as thromboxane A2 inhibitors” (Imperial Chemical Industries plc, priority 1985, dated 1992).

One test deals with rabbit aortal strip. The experiment in a line: Test (a): rabbit aortal strip model (Piper and Vane). The class given is cell-based. The note with it: agonist TXA2 or U46619. As for the experimental part: (§1) As stated earlier, the compound of formula I is an antagonist of one or more of the actions of TXA2, for example certain of its actions on blood platelets, the vasculature and/or the lung.
(a) The rabbit aortal strip model devised by Piper and Vane (Nature, 1969, 223, 29-35) using as agonist a freshly prepared sample of TXA2, generated by addition of arachidonic acid (25 μg) to citrated, platelet rich rabbit plasma (250 μl) and allowing the mixture to aggregate fully over 90 seconds before use; alternatively the TXA2 mimetic agent known as U46619 (described by R.L. Jones et alia in "Chemistry, Biochemistry and Pharmacological Activity of Prostanoids" edited by S.M. Roberts and F. Scheinmann, at page 211; Pergamon Press, 1979) may be used as the agonist;

Test [1] concerns U46619 induced bronchoconstriction. The experiment in a line: Test (c): U46619-induced bronchoconstriction, Konzett-Rossler anaesthetised guinea-pig model. It is filed as in vivo. To be noted: 2 hours after oral dosing at 0.05 mg/kg, U46619 i.v. The source says: (c) a bronchoconstriction test involving measuring the inhibition by a test compound of the bronchoconstriction induced in the Konzett-Rossler, anaesthetised guinea-pig model (as modified by Collier and James, Brit. J. Pharmacol., 1967, 30, 283-307) by intravenous administration of the TXA2 mimetic agent, U46619 and involving:
(i) obtaining a cumulative dose-response curve to U46619 induced bronchoconstriction by intravenous administration of constant volumes of increasing concentrations of U46619 (0.2-4 μg/kg) in physiological saline solution and expressing bronchoconstriction as the maximum of that theoretically obtainable with no air flow to the test animal;
(ii) generating a cumulative dose-response curve to U46619 induced bronchoconstriction at 30 minute intervals for 3 hours after oral dosing of test compound; and
(iii) calculating a dose-ratio for the test compound (that is the ratio of concentration of U46619 required to cause 50% bronchoconstriction in the presence and absence of test compound) indicating the potency of TXA2 antagonism.

For test [2], the system named is U46619 induced hypertension. Description: Test (d): U46619-induced hypertension in anaesthetised rats. The note with it: 1 hour after an oral dose of 5 mg/kg. The class given is in vivo, rat (Alderley Park strain). As for the experimental part: (d) Male rats (Alderley Park strain) are anaesthetised with sodium pentobarbital and blood pressure is monitored at the carotid artery. The TXA2 mimetic agent U46619 is administered intravenously at 5 μg/kg via the jugular vein to produce a 20-30 mm Hg ([…]) increase in systolic pressure. The procedure is repeated twice to establish reproducibility of the effect. A test compound is then administered either intravenously (via the jugular vein) or orally (via a cannula) directly into the stomach and the animal is challenged with U46619, five minutes after dosing with test compound and then successively every ten minutes until the hypertensive effect of U46619 is no longer blocked.

Test [3] addresses T1, human, citrated, platelet-rich plasma (Homo sapiens, UniProt P21731).
T1 construct: aggregating human, citrated, platelet-rich plasma; endogenous in cells; host or cells: human platelets in citrated platelet-rich plasma
T1 sequence (P21731 1-343): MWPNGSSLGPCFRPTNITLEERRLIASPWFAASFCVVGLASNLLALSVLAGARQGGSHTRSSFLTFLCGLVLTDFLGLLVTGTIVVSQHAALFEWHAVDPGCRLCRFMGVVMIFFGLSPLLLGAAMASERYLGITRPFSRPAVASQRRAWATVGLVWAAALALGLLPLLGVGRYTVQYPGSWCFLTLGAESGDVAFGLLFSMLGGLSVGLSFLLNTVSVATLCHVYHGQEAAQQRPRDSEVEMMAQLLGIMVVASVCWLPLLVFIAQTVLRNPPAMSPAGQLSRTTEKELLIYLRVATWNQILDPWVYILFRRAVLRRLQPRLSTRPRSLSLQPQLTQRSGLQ
Description: Test (b): U46619-induced aggregation of human citrated platelet-rich plasma (Born). The class given is cell-based. The note with it: agonist U46619, averaged over several concentrations.
Source text: as §1
(b) a blood platelet aggregation test based on that described by Born (Nature, 1962, 194, 927-929) and involving:
(i) aggregating human, citrated, platelet-rich plasma by addition of the TXA2 mimetic agent U46619 so that a dose-response curve is generated;
(ii) generating a dose-response curve for U46619 stimulated platelet aggregation in the presence of increasing amounts of test compound (generally in the range 10^-5 M to 10^-10 M); and
(iii) calculating a KB value indicating potency of TXA2 antagonism for the test compound, averaged over several concentrations, from the calculated 50% response value for U46619 aggregation in the presence and absence of test compound; and […]

The compound `O=C(O)CCC/C=C\C[C@@H]1CO[C@H](C(F)(F)F)O[C@@H]1c1ccccc1` (relative stereo) [5(Z)-7-([2,4,5-cis]-4-phenyl-2-trifluoromethyl-1,3-dioxan-5-yl)heptenoic acid, reference compound] came in with a pA2 with rabbit aortal strip of 6.52±0.02.
Regarding `O=C(O)CCCC/C=C\C[C@@H]1CO[C@H](C(F)(F)F)O[C@@H]1c1ccccc1O` (relative stereo) [compound of formula I, 6(Z)-8-([2,4,5-cis]-4-o-hydroxyphenyl-2-trifluoromethyl-1,3-dioxan-5-yl)octenoic acid], the pA2 in the test on rabbit aortal strip is listed as 7.75±0.05. In addition, in test [1], the dose ratio was greater than 60. Further, in test [2], the “inhibition of U46619 induced hypertension” value is greater than 70%. The compound also returned a Kb in test [3] of 3.35 µM.
